Source: US20230099756A1, “METHODS OF USING ANTI-CD79B IMMUNOCONJUGATES TO TREAT DIFFUSE LARGE B-CELL LYMPHOMA” (Genentech, Inc., priority 2021, published 2023)
Where a SMILES comes first, the peptide text is derived from it. [ ]: non-standard residue; d: D form. The star is where a group is joined. Dolaproine = CO[C@@H]([C@@H]1CCCN1)[C@@H](C)C(=O)O; Dil = CC[C@H](C)[C@H](NC)[C@@H](CC(=O)O)OC; X1 = C[C@@H](N*)[C@@H](O)c1ccccc1; NMeV = CN[C@H](C(=O)O)C(C)C

Experiments:
Type in all cases: in vitro ADME
P-glycoprotein (P-gp) = P-glycoprotein (P-gp) (Homo sapiens, UniProt P08183); test: P-glycoprotein substrate and inhibitor status of MMAE
Text: (§1) Based on a validated physiological-based PK model simulation, strong CYP3A4 inhibitors may increase the exposure (e.g., area under the concentration-time curve) of unconjugated MMAE by […] while acMMAE PK is not affected. Concomitant medications that are strong CYP3A4 inhibitors are considered cautionary as they may potentially lead to adverse reactions, which require close monitoring. […] Concomitant medications that are P-gp inhibitors are considered cautionary as they may potentially lead to adverse reactions, which require close monitoring.

CYP2D6 = CYP2D6 (Homo sapiens, UniProt P10635); test: In vitro metabolism of unconjugated MMAE; settings: in vitro data
Text: as §1

CYP3A4 = CYP3A4 (Homo sapiens, UniProt P08684); test: In vitro metabolism of unconjugated MMAE; settings: in vitro data
Text: as §1

P-glycoprotein (P-gp), sequence (P08183 whole entry): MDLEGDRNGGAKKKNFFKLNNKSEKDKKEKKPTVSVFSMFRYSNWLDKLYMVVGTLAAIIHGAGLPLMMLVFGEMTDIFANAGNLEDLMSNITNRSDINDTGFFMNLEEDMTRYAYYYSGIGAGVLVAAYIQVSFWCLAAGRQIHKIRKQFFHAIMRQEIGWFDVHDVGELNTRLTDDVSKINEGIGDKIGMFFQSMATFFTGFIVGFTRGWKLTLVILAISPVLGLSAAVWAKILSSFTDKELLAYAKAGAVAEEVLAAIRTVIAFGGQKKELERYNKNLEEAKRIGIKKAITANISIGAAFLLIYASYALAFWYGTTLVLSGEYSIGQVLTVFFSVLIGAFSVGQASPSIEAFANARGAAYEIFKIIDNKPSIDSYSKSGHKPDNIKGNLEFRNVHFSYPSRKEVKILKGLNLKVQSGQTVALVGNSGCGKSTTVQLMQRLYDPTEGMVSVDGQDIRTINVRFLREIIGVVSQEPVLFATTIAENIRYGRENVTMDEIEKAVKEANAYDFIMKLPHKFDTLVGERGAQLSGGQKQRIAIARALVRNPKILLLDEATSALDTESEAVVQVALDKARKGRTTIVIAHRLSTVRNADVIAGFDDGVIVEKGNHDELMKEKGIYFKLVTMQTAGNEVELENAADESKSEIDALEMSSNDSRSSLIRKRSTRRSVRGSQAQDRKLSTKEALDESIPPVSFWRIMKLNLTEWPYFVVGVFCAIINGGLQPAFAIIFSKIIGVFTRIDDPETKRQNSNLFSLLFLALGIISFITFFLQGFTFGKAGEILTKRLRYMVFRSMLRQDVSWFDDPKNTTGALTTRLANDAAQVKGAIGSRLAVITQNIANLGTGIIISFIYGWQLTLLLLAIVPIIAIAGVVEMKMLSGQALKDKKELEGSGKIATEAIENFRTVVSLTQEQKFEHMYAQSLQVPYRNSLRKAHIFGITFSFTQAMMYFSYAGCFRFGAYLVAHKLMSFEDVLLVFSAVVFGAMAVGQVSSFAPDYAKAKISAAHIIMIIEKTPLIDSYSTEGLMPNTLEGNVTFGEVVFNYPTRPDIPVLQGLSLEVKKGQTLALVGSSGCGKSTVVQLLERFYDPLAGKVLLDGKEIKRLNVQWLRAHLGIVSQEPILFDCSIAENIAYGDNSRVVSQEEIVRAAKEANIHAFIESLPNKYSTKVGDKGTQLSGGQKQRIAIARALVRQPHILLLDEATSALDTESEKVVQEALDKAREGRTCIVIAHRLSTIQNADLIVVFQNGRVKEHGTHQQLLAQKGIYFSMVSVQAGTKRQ
CYP3A4, sequence (P08684 whole entry): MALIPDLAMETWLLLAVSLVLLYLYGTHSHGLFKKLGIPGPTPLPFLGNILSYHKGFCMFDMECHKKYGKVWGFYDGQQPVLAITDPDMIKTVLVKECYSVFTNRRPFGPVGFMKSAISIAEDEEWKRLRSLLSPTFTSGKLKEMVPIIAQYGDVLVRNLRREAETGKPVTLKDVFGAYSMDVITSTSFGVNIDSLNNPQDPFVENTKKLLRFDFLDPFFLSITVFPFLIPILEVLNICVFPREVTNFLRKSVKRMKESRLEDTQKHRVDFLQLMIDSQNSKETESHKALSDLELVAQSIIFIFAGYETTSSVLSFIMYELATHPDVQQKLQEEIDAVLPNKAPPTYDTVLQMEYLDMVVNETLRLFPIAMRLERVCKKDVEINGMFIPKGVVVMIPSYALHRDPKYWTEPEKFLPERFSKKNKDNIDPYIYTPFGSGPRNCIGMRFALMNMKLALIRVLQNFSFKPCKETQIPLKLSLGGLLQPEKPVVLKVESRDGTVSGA
CYP2D6, sequence (P10635 whole entry): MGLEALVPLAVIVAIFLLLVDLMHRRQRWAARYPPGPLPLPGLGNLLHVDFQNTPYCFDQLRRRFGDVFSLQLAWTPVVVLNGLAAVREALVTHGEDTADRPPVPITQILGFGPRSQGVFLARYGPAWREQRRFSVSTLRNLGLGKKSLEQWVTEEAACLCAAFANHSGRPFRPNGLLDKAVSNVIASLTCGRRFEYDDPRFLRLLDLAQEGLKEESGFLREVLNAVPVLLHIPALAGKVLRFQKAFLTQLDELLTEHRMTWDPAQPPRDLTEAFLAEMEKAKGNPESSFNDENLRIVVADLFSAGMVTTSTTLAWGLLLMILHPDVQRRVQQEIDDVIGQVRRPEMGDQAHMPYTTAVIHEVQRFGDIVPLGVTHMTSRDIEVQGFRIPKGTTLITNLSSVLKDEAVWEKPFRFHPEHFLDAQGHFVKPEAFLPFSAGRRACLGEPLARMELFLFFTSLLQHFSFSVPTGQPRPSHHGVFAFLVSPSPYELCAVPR

## CC[C@H](C)[C@@H]([C@@H](CC(=O)N1CCC[C@H]1[C@H](OC)[C@@H](C)C(=O)N[C@H](C)[C@@H](O)c1ccccc1)OC)N(C)C(=O)[C@@H](NC(=O)[C@@H](NC)C(C)C)C(C)C [MMAE] (H-[NMeV]V[Dil][Dolaproine]-X1)
P-glycoprotein (P-gp)
  P-gp inhibitor status: not a P-gp inhibitor
  P-gp substrate status: P-glycoprotein (P-gp) substrate
CYP2D6
  metabolism by CYP2D6: to a lesser extent, by CYP2D6
CYP3A4
  metabolism by CYP3A4: mainly metabolized by CYP3A4
